The values that follow come from publication PMC5218480 (PLoS ONE, 2017).

Molecules are shown by their SMILES.

The subject of the test is MV-4-11 cells. Kind of test: Gene expression microarray analysis (Affymetrix PrimeView) and GSEA. It is filed as cell-based, human. The arrangement: RFU PODN (11730768_x_at) / Fold change /veh PODN (11730768_x_at) / RFU LINC00158 (11744669_a_at) / Fold change /veh LINC00158 (11744669_a_at) / RFU DUSP10 (11751237_a_at) / Fold change /veh DUSP10 (11751237_a_at) / RFU ID3 (11757404_x_at) / Fold change /veh ID3 (11757404_x_at) / RFU PLEKHG5 (11737974_s_at) / Fold change /veh PLEKHG5 (11737974_s_at) / RFU LRRC4B (11730491_at) / Fold change /veh LRRC4B (11730491_at) / RFU GIMAP4 (11747438_a_at) / Fold change /veh GIMAP4 (11747438_a_at) / RFU KRT8 (11758183_x_at) / Fold change /veh KRT8 (11758183_x_at) / RFU CNN1 (11734310_a_at) / Fold change /veh CNN1 (11734310_a_at) / RFU VPS37D (11726825_at) / Fold change /veh VPS37D (11726825_at) / RFU C10orf10 (11716522_x_at) / Fold change /veh C10orf10 (11716522_x_at) / RFU KIR2DL2 /// KIR2DL4 /// KIR2DL5A /// KIR2DL5B /// KIR2DS1 /// KIR2DS2 /// KIR2DS3 /// KIR2DS4 /// KIR3DL3 /// KIR3DL3 /// KIR3DS1 (11738374_at) / Fold change /veh KIR2DL2 /// KIR2DL4 /// KIR2DL5A /// KIR2DL5B /// KIR2DS1 /// KIR2DS2 /// KIR2DS3 /// KIR2DS4 /// KIR3DL3 /// KIR3DL3 /// KIR3DS1 (11738374_at) / RFU C1QL1 (11718748_at) / Fold change /veh C1QL1 (11718748_at) / RFU TMPRSS4 (11747572_a_at) / Fold change /veh TMPRSS4 (11747572_a_at) / RFU HAMP (11756126_x_at) / Fold change /veh HAMP (11756126_x_at) / RFU RNFT2 (11725882_a_at) / Fold change /veh RNFT2 (11725882_a_at) / RFU NR4A2 (11747474_a_at) / Fold change /veh NR4A2 (11747474_a_at) / RFU ABCC12 (11746883_a_at) / Fold change /veh ABCC12 (11746883_a_at) / RFU TMEM136 (11760407_x_at) / Fold change /veh TMEM136 (11760407_x_at) / RFU CLDN22 /// WWC2 (11732394_at) / Fold change /veh CLDN22 /// WWC2 (11732394_at) / RFU HLA-DPB1 (11760878_x_at) / Fold change /veh HLA-DPB1 (11760878_x_at) / RFU SPINT1 (11716480_a_at) / Fold change /veh SPINT1 (11716480_a_at) / RFU GAP43 (11754022_s_at) / Fold change /veh GAP43 (11754022_s_at) / RFU A4GNT (11735810_at) / Fold change /veh A4GNT (11735810_at) / RFU PRB3 (11715151_x_at) / Fold change /veh PRB3 (11715151_x_at) / RFU TUBB4B (11761932_at) / Fold change /veh TUBB4B (11761932_at) / RFU CAPN14 (11732068_a_at) / Fold change /veh CAPN14 (11732068_a_at) / RFU TMCC2 (11721928_a_at) / Fold change /veh TMCC2 (11721928_a_at) / RFU IRGQ (11745062_a_at) / Fold change /veh IRGQ (11745062_a_at) / RFU FAM174B (11720279_a_at) / Fold change /veh FAM174B (11720279_a_at) / RFU TMPRSS4 (11748680_a_at) / Fold change /veh TMPRSS4 (11748680_a_at) / RFU FAM212B (11763350_a_at) / Fold change /veh FAM212B (11763350_a_at) / RFU PLEKHG5 (11743358_a_at) / Fold change /veh PLEKHG5 (11743358_a_at) / RFU ZSCAN30 (11745921_a_at) / Fold change /veh ZSCAN30 (11745921_a_at) / RFU CMKLR1 (11741424_a_at) / Fold change /veh CMKLR1 (11741424_a_at) / RFU LOC101060620 /// MAPK8IP1 (11723275_at) / Fold change /veh LOC101060620 /// MAPK8IP1 (11723275_at) / RFU SPTSSB (11747773_x_at) / Fold change /veh SPTSSB (11747773_x_at) / RFU PRSS12 (11739890_at) / Fold change /veh PRSS12 (11739890_at) / RFU BIN1 (11741810_x_at) / Fold change /veh BIN1 (11741810_x_at) / RFU WNT11 (11732464_a_at) / Fold change /veh WNT11 (11732464_a_at) / RFU C10orf10 (11716521_a_at) / Fold change /veh C10orf10 (11716521_a_at) / RFU C5orf56 (11738089_at) / Fold change /veh C5orf56 (11738089_at) / RFU CYB561 (11721691_x_at) / Fold change /veh CYB561 (11721691_x_at) / RFU ANKRD19P (11752326_a_at) / Fold change /veh ANKRD19P (11752326_a_at) / RFU OR2T12 /// OR2T33 /// OR2T8 (11738714_s_at) / Fold change /veh OR2T12 /// OR2T33 /// OR2T8 (11738714_s_at) / RFU VCAN (11748164_a_at) / Fold change /veh VCAN (11748164_a_at) / RFU JSRP1 (11732532_at) / Fold change /veh JSRP1 (11732532_at) / RFU KRTAP10-11 (11738290_x_at) / Fold change /veh KRTAP10-11 (11738290_x_at) / RFU MYO3A (11730013_a_at) / Fold change /veh MYO3A (11730013_a_at) / RFU EBF3 (11725865_a_at) / Fold change /veh EBF3 (11725865_a_at) / RFU CAMK2N1 (11719241_x_at) / Fold change /veh CAMK2N1 (11719241_x_at) / RFU C5orf56 (11738088_a_at) / Fold change /veh C5orf56 (11738088_a_at) / RFU OLFML3 (11715873_a_at) / Fold change /veh OLFML3 (11715873_a_at) / RFU LOC100653217 /// NTM (11731650_a_at) / Fold change /veh LOC100653217 /// NTM (11731650_a_at) / RFU MAPK11 (11762145_a_at) / Fold change /veh MAPK11 (11762145_a_at) / RFU FIZ1 (11724087_x_at) / Fold change /veh FIZ1 (11724087_x_at) / RFU OASL (11726364_x_at) / Fold change /veh OASL (11726364_x_at) / RFU SOX15 (11748057_x_at) / Fold change /veh SOX15 (11748057_x_at) / RFU CD79A (11719716_a_at) / Fold change /veh CD79A (11719716_a_at) / RFU HIST1H1D (11736915_at) / Fold change /veh HIST1H1D (11736915_at) / RFU CASKIN2 (11723855_a_at) / Fold change /veh CASKIN2 (11723855_a_at) / RFU LOC730098 (11760151_x_at) / Fold change /veh LOC730098 (11760151_x_at) / RFU OR4N2 (11742367_at) / Fold change /veh OR4N2 (11742367_at) / RFU PRRT2 (11749266_a_at) / Fold change /veh PRRT2 (11749266_a_at) / RFU SNX32 (11753110_a_at) / Fold change /veh SNX32 (11753110_a_at) / RFU CDHR5 (11726645_a_at) / Fold change /veh CDHR5 (11726645_a_at) / RFU RCAN1 (11760418_a_at) / Fold change /veh RCAN1 (11760418_a_at) / RFU FAM167A (11723789_a_at) / Fold change /veh FAM167A (11723789_a_at) / RFU FAM26E (11764081_at) / Fold change /veh FAM26E (11764081_at) / RFU ISYNA1 (11749810_s_at) / Fold change /veh ISYNA1 (11749810_s_at) / RFU ACY1 (11761880_at) / Fold change /veh ACY1 (11761880_at) / RFU 11764098_at / Fold change /veh 11764098_at / RFU SAMD14 (11745864_x_at) / Fold change /veh SAMD14 (11745864_x_at) / RFU NPB (11741838_a_at) / Fold change /veh NPB (11741838_a_at) / RFU TMPRSS6 (11731388_a_at) / Fold change /veh TMPRSS6 (11731388_a_at) / RFU KRTAP10-2 (11738614_at) / Fold change /veh KRTAP10-2 (11738614_at) / RFU ARHGAP8 /// PRR5-ARHGAP8 (11727945_x_at) / Fold change /veh ARHGAP8 /// PRR5-ARHGAP8 (11727945_x_at) / RFU KRTAP5-7 /// NADSYN1 (11734609_at) / Fold change /veh KRTAP5-7 /// NADSYN1 (11734609_at) / RFU RASL12 (11751679_a_at) / Fold change /veh RASL12 (11751679_a_at) / RFU CDKN2B (11736163_a_at) / Fold change /veh CDKN2B (11736163_a_at) / RFU PRF1 (11729649_at) / Fold change /veh PRF1 (11729649_at) / RFU, ZNF638 /// ZNF638-IT1 / Fold change vs veh, ZNF638 /// ZNF638-IT1 / RFU, PANK3 / Fold change vs veh, PANK3 / RFU, SH3YL1 / Fold change vs veh, SH3YL1 / RFU, ZEB2 / Fold change vs veh, ZEB2 / RFU, NRIP1 / Fold change vs veh, NRIP1 / RFU, PTTG1IP / Fold change vs veh, PTTG1IP / RFU, CAPN2 / Fold change vs veh, CAPN2 / RFU, MED14 / Fold change vs veh, MED14 / RFU, SNORA58 / Fold change vs veh, SNORA58 / RFU, C1orf63 / Fold change vs veh, C1orf63 / RFU, LRRFIP1 / Fold change vs veh, LRRFIP1 / RFU, NDUFAF7 / Fold change vs veh, NDUFAF7 / RFU, SLC12A2 / Fold change vs veh, SLC12A2 / RFU, IBTK / Fold change vs veh, IBTK / RFU, ESF1 / Fold change vs veh, ESF1 / Fold change vs veh, TMEM50B / RFU, TAOK1 / Fold change vs veh, TAOK1 / RFU, ACBD3 / Fold change vs veh, ACBD3 / RFU, TMA16 / Fold change vs veh, TMA16 / RFU, RWDD3 / Fold change vs veh, RWDD3 / RFU, BCAT1 / Fold change vs veh, BCAT1 / RFU, EDEM3 / Fold change vs veh, EDEM3 / RFU, TMEM33 / Fold change vs veh, TMEM33 / RFU, WDR75 / Fold change vs veh, WDR75 / RFU, AHCTF1 / Fold change vs veh, AHCTF1 / RFU, TFRC / Fold change vs veh, TFRC / RFU, ZDHHC17 / Fold change vs veh, ZDHHC17 / RFU, NOM1 / Fold change vs veh, NOM1 / RFU, ARL8B / Fold change vs veh, ARL8B / RFU, ZBTB11 / Fold change vs veh, ZBTB11 / RFU, TAMM41 / Fold change vs veh, TAMM41 / RFU, KIAA1704 /// LOC100996395 / Fold change vs veh, KIAA1704 /// LOC100996395 / RFU, ING1 / Fold change vs veh, ING1 / RFU, TRMT61B / Fold change vs veh, TRMT61B / RFU, FUBP3 / Fold change vs veh, FUBP3 / RFU, TP53 / Fold change vs veh, TP53 / RFU, TNKS2 / Fold change vs veh, TNKS2 / RFU, ZFP14 / Fold change vs veh, ZFP14 / RFU, ACTR2 / Fold change vs veh, ACTR2 / RFU, PPP3R1 / Fold change vs veh, PPP3R1 / RFU, PIK3R1 / Fold change vs veh, PIK3R1 / RFU, HNRNPA1 / Fold change vs veh, HNRNPA1 / RFU, RNF170 / Fold change vs veh, RNF170 / RFU, ZNF28 / Fold change vs veh, ZNF28 / RFU, RNGTT / Fold change vs veh, RNGTT / RFU, OGT / Fold change vs veh, OGT / RFU, BRD1 / Fold change vs veh, BRD1 / RFU, MARS / Fold change vs veh, MARS / RFU, ZNF655 / Fold change vs veh, ZNF655 / RFU, FAHD1 / Fold change vs veh, FAHD1 / RFU, BDP1 / Fold change vs veh, BDP1 / RFU, LRRCC1 / Fold change vs veh, LRRCC1 / RFU, ARID1A / Fold change vs veh, ARID1A / RFU, ZNF146 / Fold change vs veh, ZNF146 / RFU, ZNF330 / Fold change vs veh, ZNF330 / RFU, GPN3 / Fold change vs veh, GPN3 / RFU, C9orf123 / Fold change vs veh, C9orf123 / RFU, N4BP2L2 / Fold change vs veh, N4BP2L2 / RFU, ARFIP1 / Fold change vs veh, ARFIP1 / RFU, FAM179B / Fold change vs veh, FAM179B / RFU, BCL10 / Fold change vs veh, BCL10 / RFU, UHRF1BP1L / Fold change vs veh, UHRF1BP1L / RFU, BET1 / Fold change vs veh, BET1 / RFU, CNOT2 / Fold change vs veh, CNOT2 / RFU, ZNF268 / Fold change vs veh, ZNF268 / Fold change vs veh, ZNF507 / RFU, DGCR2 / Fold change vs veh, DGCR2 / RFU, WDSUB1 / Fold change vs veh, WDSUB1 / Fold change vs veh, HSP90B1 /// MIR3652 / RFU, ADSS / Fold change vs veh, ADSS / RFU, GK / Fold change vs veh, GK / RFU, ZNF148 / Fold change vs veh, ZNF148 / RFU, TAF9 / Fold change vs veh, TAF9 / RFU, SLC1A5 / Fold change vs veh, SLC1A5 / RFU, SLMO2 / Fold change vs veh, SLMO2 / RFU, ABCC4 / Fold change vs veh, ABCC4 / RFU, LOC101060439 /// RAP1B / Fold change vs veh, LOC101060439 /// RAP1B / RFU, RFX7 / Fold change vs veh, RFX7 / RFU, GTPBP10 / Fold change vs veh, GTPBP10 / RFU, CNEP1R1 / Fold change vs veh, CNEP1R1 / RFU, BIVM-ERCC5 /// ERCC5 / Fold change vs veh, BIVM-ERCC5 /// ERCC5 / RFU, ILF3 / Fold change vs veh, ILF3 / RFU 11762660_at / Fold change /veh 11762660_at / RFU VCAN (11757783_s_at) / Fold change /veh VCAN (11757783_s_at) / RFU DDX43 (11728927_at) / Fold change /veh DDX43 (11728927_at) / RFU KRT8 (11758188_x_at) / Fold change /veh KRT8 (11758188_x_at) / RFU NKD1 (11759106_at) / Fold change /veh NKD1 (11759106_at) / RFU SRD5A1 (11742802_a_at) / Fold change /veh SRD5A1 (11742802_a_at) / RFU TPSAB1 /// TPSB2 (11721975_s_at) / Fold change /veh TPSAB1 /// TPSB2 (11721975_s_at) / RFU GSTM3 (11746129_a_at) / Fold change /veh GSTM3 (11746129_a_at) / RFU IL23R (11737362_x_at) / Fold change /veh IL23R (11737362_x_at) / RFU TMEM51 (11727254_a_at) / Fold change /veh TMEM51 (11727254_a_at) / RFU PIWIL2 (11732686_x_at) / Fold change /veh PIWIL2 (11732686_x_at) / RFU ORM1 (11744905_x_at) / Fold change /veh ORM1 (11744905_x_at) / RFU CCDC152 (11743942_at) / Fold change /veh CCDC152 (11743942_at) / RFU ECM1 (11717891_a_at) / Fold change /veh ECM1 (11717891_a_at) / RFU IL23R (11748794_a_at) / Fold change /veh IL23R (11748794_a_at) / RFU TNFAIP8L3 (11732012_x_at) / Fold change /veh TNFAIP8L3 (11732012_x_at) / RFU MBOAT4 (11741988_at) / Fold change /veh MBOAT4 (11741988_at) / RFU 11764193_at / Fold change /veh 11764193_at / RFU TMEM53 (11763286_at) / Fold change /veh TMEM53 (11763286_at) / RFU MAGEB2 (11727129_at) / Fold change /veh MAGEB2 (11727129_at) / RFU TMEM200A (11744735_a_at) / Fold change /veh TMEM200A (11744735_a_at) / RFU CCDC152 (11751479_a_at) / Fold change /veh CCDC152 (11751479_a_at) / RFU FAM211A (11726209_a_at) / Fold change /veh FAM211A (11726209_a_at) / RFU RGS16 (11746705_a_at) / Fold change /veh RGS16 (11746705_a_at) / RFU VCAN (11755009_s_at) / Fold change /veh VCAN (11755009_s_at) / RFU RHOB (11743442_s_at) / Fold change /veh RHOB (11743442_s_at) / RFU RGS16 (11720943_a_at) / Fold change /veh RGS16 (11720943_a_at) / RFU RGS16 (11720944_at) / Fold change /veh RGS16 (11720944_at) / RFU, VPS4B / Fold change vs veh, VPS4B / RFU, CREB1 / Fold change vs veh, CREB1 / RFU, DNAJC13 / Fold change vs veh, DNAJC13 / RFU, GNAQ / Fold change vs veh, GNAQ / RFU, CDK5R1 / Fold change vs veh, CDK5R1 / RFU, ZRANB3 / Fold change vs veh, ZRANB3 / RFU, CUL4A / Fold change vs veh, CUL4A / RFU, CCNY / Fold change vs veh, CCNY / RFU, UFL1 / Fold change vs veh, UFL1 / RFU, COG3 / Fold change vs veh, COG3 / RFU, DIAPH2 / Fold change vs veh, DIAPH2 / RFU, SKA2 / Fold change vs veh, SKA2 / RFU, AFF3 / Fold change vs veh, AFF3 / RFU, LMF1 / Fold change vs veh, LMF1 / RFU, IPO11 / Fold change vs veh, IPO11 / RFU, DFFB / Fold change vs veh, DFFB / RFU, FOXP1 / Fold change vs veh, FOXP1 / RFU, CARD8 / Fold change vs veh, CARD8 / RFU, STRN3 / Fold change vs veh, STRN3 / RFU, ADK / Fold change vs veh, ADK / RFU, RASSF2 / Fold change vs veh, RASSF2 / RFU, WIPF1 / Fold change vs veh, WIPF1 / RFU, LARP1B / Fold change vs veh, LARP1B / RFU, RASA1 / Fold change vs veh, RASA1 / RFU, RB1 / Fold change vs veh, RB1 / RFU, PPFIA1 / Fold change vs veh, PPFIA1 / RFU, MAT2A / Fold change vs veh, MAT2A / RFU, CCT5 / Fold change vs veh, CCT5 / RFU, WDR92 / Fold change vs veh, WDR92 / RFU, CUX1 / Fold change vs veh, CUX1 / RFU, TTC7A / Fold change vs veh, TTC7A / RFU, TMEM135 / Fold change vs veh, TMEM135 / RFU, DEPTOR / Fold change vs veh, DEPTOR / RFU, CPM / Fold change vs veh, CPM / RFU, DNAJB6 / Fold change vs veh, DNAJB6 / RFU, CACNA2D3 / Fold change vs veh, CACNA2D3 / RFU, DTX4 / Fold change vs veh, DTX4 / RFU, TFCP2 / Fold change vs veh, TFCP2 / RFU, GMCL1 /// GMCL1P1 / Fold change vs veh, GMCL1 /// GMCL1P1 / RFU, AEBP2 / Fold change vs veh, AEBP2 / RFU, SNHG1 /// SNORD22 /// SNORD25 /// SNORD26 /// SNORD27 /// SNORD28 /// SNORD29 /// SNORD31 / Fold change vs veh, SNHG1 /// SNORD22 /// SNORD25 /// SNORD26 /// SNORD27 /// SNORD28 /// SNORD29 /// SNORD31 / Fold change (Aza/veh), C12orf56 (ProbeSet 11735607_a_at) / Fold change (ACY-1035/veh), C12orf56 (ProbeSet 11735607_a_at) / Fold change (Aza/veh), FGFR1OP (ProbeSet 11751329_s_at) / Fold change (ACY-1035/veh), FGFR1OP (ProbeSet 11751329_s_at) / Fold change (Aza/veh), VPS36 (ProbeSet 11739960_a_at) / Fold change (ACY-1035/veh), VPS36 (ProbeSet 11739960_a_at) / RFU SYPL1 (11715823_x_at) / Fold change /veh SYPL1 (11715823_x_at) / RFU IGFBP7 (11715501_s_at) / Fold change /veh IGFBP7 (11715501_s_at) / RFU REEP3 (11722064_at) / Fold change /veh REEP3 (11722064_at) / RFU IGLL1 (11728026_x_at) / Fold change /veh IGLL1 (11728026_x_at): dose or concentration left out as unconfirmed. As to conditions: MV-4-11 cells, 48 hours.

In the case of `Nc1ccc(-c2cccs2)cc1NC(=O)c1ccc2c(c1)cc(C1CC1)n2CCN1CCOCC1` [ACY-1035], the “RFU KRT8 (11758188_x_at)” value is 20.03 RFU.
